{"source": "paper PMC6950336", "about": "“Co-Occurrence of DON and Emerging Mycotoxins in Worldwide Finished Pig Feed and Their Combined Toxicity in Intestinal Cells” (Toxins, 2019)", "key": {"[1]": {"test_system": "A549", "settings": "A549, 2 mM; cited from earlier work"}, "[2]": {"test_system": "IPEC-1 cells", "settings": "for Toxicity to intestinal cells at high concentrations: IPEC-1, concentrations of up to 300 µM; for IC50 (dose leading to a 50% reduction in cell viability) / IC50: mean ± SEM of three biological replicates; for IC50: read-out: IC50 (dose leading to a 50% reduction in cell viability); for Individual toxicity compared with DON: IPEC-1, 48 h, dose-effect curves"}, "[3]": {"test_system": "HepG2", "settings": "HepG2, 2 mM; cited from earlier work"}, "[4]": {"test_system": "THP-1 cells", "settings": "THP-1, 2 mM; cited from earlier work"}, "[5]": {"test_system": "lymphocytes and splenocytes", "settings": "cited from earlier work"}, "[6]": {"test_system": "IPEC-1 cells", "assay": "cells", "settings": "Sus scrofa, 48 h, read-out: IC50 (dose leading to a 50% reduction in cell viability)"}, "[7]": {"test_system": "HepG2", "settings": "cited from earlier work"}, "[8]": {"test_system": "Caco-2", "settings": "cited from earlier work"}, "[9]": {"test_system": "IPEC-J2", "settings": "read-out: relative IC50; cited from earlier work"}, "[10]": {"test_system": "human multiple myeloma blood cells", "settings": "cited from earlier work"}, "[11]": {"settings": "lymphocytes and splenocytes, low doses (> 0.1µM)"}, "[12]": {"settings": "ratio 3, highest concentration(s): DON 50 µM + EMO 5 µM / ENN-B 17.2 µM / BEA 2.3 µM / ENN-A1 6.5 µM, ENN-B1 6 and 18 µM"}}, "note": "Like-named read-outs stand apart in the source and are kept apart here.", "data": [{"compound": "OCCc1c[nH]c2ccccc12", "note": "[Tryptophol]", "values": [{"measurement": "DNA damage", "setting": "[1]", "value": "induced DNA damage"}, {"measurement": "Toxicity (classification from IC50 compared with DON)", "setting": "[2]", "value": "Non-toxic"}, {"measurement": "Toxicity to intestinal cells at high concentrations", "setting": "[2]", "value": "not toxic"}, {"measurement": "IC50 (dose leading to a 50% reduction in cell viability)", "setting": "[2]", "value": "Non-Toxic"}, {"measurement": "DNA damage", "setting": "[3]", "value": "induced DNA damage"}, {"measurement": "DNA damage", "setting": "[4]", "value": "induced DNA damage"}]}, {"compound": "Enniatin A1", "values": [{"measurement": "IC50", "setting": "[2]", "value": "1.6 ± 0.3", "unit": "µM"}]}, {"compound": "CCCC[C@@H](C)[C@@H](OC(=O)C[C@@H](CC(=O)O)C(=O)O)[C@H](C[C@@H](C)C[C@H](O)CCCC[C@@H](O)C[C@H](O)[C@H](C)N)OC(=O)C[C@@H](CC(=O)O)C(=O)O", "note": "[fumonisin B1]", "values": [{"measurement": "Proliferation", "setting": "[5]; [11]", "value": "up to 200%"}]}, {"compound": "Beauvericin", "values": [{"measurement": "IC50", "setting": "[2]", "value": "4.3 ± 1.8", "unit": "µM"}]}, {"compound": "CC(C)[C@H]1C(=O)O[C@H](C(C)C)C(=O)N(C)[C@@H](C(C)C)C(=O)O[C@H](C(C)C)C(=O)N(C)[C@@H](C(C)C)C(=O)O[C@H](C(C)C)C(=O)N1C", "note": "[Enniatin B]", "values": [{"measurement": "Toxicity (classification from IC50 compared with DON)", "setting": "[2]", "value": "Highly toxic"}, {"measurement": "Toxicity of the emerging mycotoxin alone", "setting": "[2]", "value": "not toxic"}, {"measurement": "Individual toxicity compared with DON", "setting": "[2]", "value": "close to that of DON"}, {"measurement": "Toxicity of the combination of DON and the emerging mycotoxin", "setting": "[2]; [12]", "value": "lower than the toxicity of either DON alone or ENN-B alone"}, {"measurement": "IC50", "setting": "[6]", "value": "4.4 ± 0.9", "unit": "µM"}, {"measurement": "Toxicity", "setting": "[7]", "value": "no toxicity at all"}, {"measurement": "Toxicity", "setting": "[8]", "value": "no toxicity at all"}]}, {"compound": "CC1=C[C@H]2O[C@@H]3[C@H](O)[C@@H](O)[C@](C)([C@@]2(CO)[C@H](O)C1=O)[C@]31CO1", "note": "[nivalenol]", "values": [{"measurement": "Proliferation", "setting": "[5]", "value": "up to 200%"}]}, {"compound": "CC1=C[C@H]2O[C@@H]3[C@H](O)C[C@](C)([C@@]2(CO)[C@H](O)C1=O)[C@]31CO1", "note": "[Deoxynivalenol]", "values": [{"measurement": "Proliferation", "setting": "[5]; [11]", "value": "up to 200%"}, {"measurement": "Toxicity (classification from IC50 compared with DON)", "setting": "[2]", "value": "Highly toxic"}, {"measurement": "IC50", "setting": "[2]", "value": "3.2 ± 0.7", "unit": "µM"}]}, {"compound": "O=C1N[C@@H](Cc2ccc(O)cc2)C(=O)N2CCC[C@@H]12", "note": "[Cyclo-(L-Pro-L-Tyr)]", "values": [{"measurement": "Toxicity (classification from IC50 compared with DON)", "setting": "[2]", "value": "Non-toxic"}, {"measurement": "Toxicity to intestinal cells at high concentrations", "setting": "[2]", "value": "not toxic"}, {"measurement": "IC50 (dose leading to a 50% reduction in cell viability)", "setting": "[2]", "value": "Non-Toxic"}]}, {"compound": "Cc1cc(O)c2c(c1)C(=O)c1cc(O)cc(O)c1C2=O", "note": "[Emodin]", "values": [{"measurement": "IC50", "setting": "[9]", "value": 13.1, "unit": "µM"}, {"measurement": "Proliferation induced by the toxin alone", "setting": "[2]", "value": "up to 130%"}, {"measurement": "Toxicity (classification from IC50 compared with DON)", "setting": "[2]", "value": "Moderately toxic"}, {"measurement": "Individual toxicity compared with DON", "setting": "[2]", "value": "less than that of DON"}, {"measurement": "Toxicity of the combination of DON and the emerging mycotoxin", "setting": "[2]; [12]", "value": "less toxic than DON alone"}, {"measurement": "IC50", "setting": "[6]", "value": "19 ± 0.7", "unit": "µM"}, {"measurement": "IC50", "setting": "[10]", "value": 38, "unit": "µM"}]}, {"compound": "COC1=C(C2=C(OC)C(=O)c3cc4oc(C)cc(=O)c4c(O)c3C2=O)C(=O)c2c(cc3oc(C)cc(=O)c3c2O)C1=O", "note": "[Aurofusarin]", "values": [{"measurement": "IC50", "setting": "[9]", "value": 9.3, "unit": "µM"}, {"measurement": "Toxicity (classification from IC50 compared with DON)", "setting": "[2]", "value": "Moderately toxic"}, {"measurement": "Toxicity of the emerging mycotoxin alone", "setting": "[2]", "value": "minimal"}, {"measurement": "Individual toxicity compared with DON", "setting": "[2]", "value": "less than that of DON"}, {"measurement": "IC50", "setting": "[2]", "value": "19.1 ± 3.4", "unit": "µM"}]}, {"compound": "CC[C@H](C)[C@H]1C(=O)O[C@H](C(C)C)C(=O)N(C)[C@@H](C(C)C)C(=O)O[C@H](C(C)C)C(=O)N(C)[C@@H](C(C)C)C(=O)O[C@H](C(C)C)C(=O)N1C", "note": "[Enniatin B1]", "values": [{"measurement": "Toxicity (classification from IC50 compared with DON)", "setting": "[2]", "value": "Moderately toxic"}, {"measurement": "Toxicity of the emerging mycotoxin alone", "setting": "[2]", "value": "minimal"}, {"measurement": "Individual toxicity compared with DON", "setting": "[2]", "value": "less than that of DON"}, {"measurement": "Toxicity of the combination of DON and the emerging mycotoxin", "setting": "[2]; in mixture with DON, ratio 3, in general (exceptions reported separately)", "value": "the same as the toxicity of DON alone"}, {"measurement": "Toxicity of the combination of DON and the emerging mycotoxin", "setting": "[2]; ratio 2, highest concentration: DON 50 µM + ENN-B1 4.1 µM / ENN-B 3.6 µM / ENN-A1 1.7 µM", "value": "higher than the toxicity of ENN-B1 alone, but lower than the toxicity of DON alone"}, {"measurement": "Toxicity of the combination of DON and the emerging mycotoxin", "setting": "[2]; [12]", "value": "the same as the toxicity of ENN-B1 alone, but lower than the toxicity of DON alone"}, {"measurement": "IC50", "setting": "[6]", "value": "13.5 ± 2.5", "unit": "µM"}]}, {"compound": "CCC(=O)CCCCC[C@@H]1NC(=O)[C@H]2CCCCN2C(=O)[C@H]([C@@H](C)CC)NC(=O)[C@H](Cc2cn(OC)c3ccccc23)NC1=O", "note": "[Apicidin]", "values": [{"measurement": "Toxicity (classification from IC50 compared with DON)", "setting": "[2]", "value": "Highly toxic"}, {"measurement": "Toxicity of the emerging mycotoxin alone", "setting": "[2]", "value": "not toxic"}, {"measurement": "Individual toxicity compared with DON", "setting": "[2]", "value": "more toxic than DON"}, {"measurement": "Concentration at which toxicity was confirmed", "setting": "[2]; pig", "value": "> 500", "unit": "nM"}, {"measurement": "Toxicity of the combination of DON and the emerging mycotoxin", "setting": "[2]; ratio 2, doses lower than DON (5.6 µM) + API (0.09 µM)", "value": "lower than the toxicity of DON alone, but higher than API alone"}, {"measurement": "IC50", "setting": "[6]", "value": "1.5 ± 0.5", "unit": "µM"}]}, {"compound": "aflatoxin B1", "values": [{"measurement": "Proliferation", "setting": "[5]", "value": "up to 200%"}]}, {"compound": "O=C1N[C@@H](Cc2c[nH]c3ccccc23)C(=O)N2CCC[C@@H]12", "note": "[Brevianamide F]", "values": [{"measurement": "Toxicity (classification from IC50 compared with DON)", "setting": "[2]", "value": "Non-toxic"}, {"measurement": "Toxicity to intestinal cells at high concentrations", "setting": "[2]", "value": "not toxic"}, {"measurement": "IC50 (dose leading to a 50% reduction in cell viability)", "setting": "[2]", "value": "Non-Toxic"}]}]}
